Results: patent US20160349268A1, “STEPWISE ASSEMBLED CAPTURE COMPOUNDS COMPRISING A CLEAVABLE FUNCTION AND METHOD FOR ISOLATING AND/OR CHARACTERIZING BIOMOLECULES OR BIOMOLECULE FRAGMENTS, IN PARTICULAR PROTEINS OR PROTEIN FRAGMENTS, OF COMPLEX MIXTURES” (CAPROTEC BIOANALYTICS GMBH, priority 2014, published 2016)

Experiments:
[1] = Click-and-cleave without proteins/lysate (release of cleaved off photo-reacted reactivity function 15, LC-MS); format: physicochemical; conditions: for Area/a.u. of LC-MS EIC 249.10 peak at 1.75 min (cleaved off photo-reacted reactivity function 15): starting material bound to CPG-TCO beads 13
Experimental: A solution of 100 μL 2.5 μM 11 (CPT727, Capture Compound bearing tetrazine as sorting function and a chemically cleavable photo-reactivity function) in phosphate buffered saline (PBS) was irradiated with UV light (λmax=310 nm) for 5 min at 4° C. in the caproBox (caprotec bioanalytics, Berlin. Germany) to activate the reactivity function yielding 12 (Scheme 12).
The resulting solution was incubated with 2 mg 13 (CPT601, CCB 4, trans-cyclooctene (TCO) modified controlled pore glass (CPG), CPG-TCO beads) over night at 4° C. to covalently bind compound 12 to 13 by the TCO-tetrazine click reaction yielding 14 (Scheme 12). During this time, 13 was kept in suspension by rotation.
Unbound 12 was removed by separating the supernating solution from 14 after centrifugation in a table top centrifuge and washing the solid 14 by re-suspending in fresh solution and removal of the supernatant after centrifugation (three times with 200 μl SL Buffer (50 mM Tris/HCl, 320 mM beta-mercaptoethanol, 2.5% sodium dodecylsulfate, 0.05% bromophenol blue, 10% glycerol, pH 6.8), three times with 200 μl 50% acetonitrile).
The washed 14 was divided into two aliquots. One aliquot was incubated with 10 mM 2-nitrobenzhydrazide and 10 mM HCl in 10 μl 50% acetonitrile (final concentrations and volume) at room temperature for 1 h while keeping 14 in suspension by rotation yielding the cleaved off photo-reacted reactivity function 15 (Scheme 12). As a control, the second aliquot of 14 was treated the same way side-by-side but without 2-nitrobenzhydrazide and HCl. The solutions supernating (cleaved) 14 were analyzed by LC-MS.
The same procedure was performed side-by-side using 16 (CPT634, Capture Compound bearing tetrazine as sorting function and non-cleavable photo-reactivity function) instead of 11.

[2] = target: T1, tRNA (cmo5U34)-methyltransferase (Escherichia coli, UniProt P76290); assay: Click-and-cleave with proteins/lysate, nanoLC/MS2 protein quantification of gel slices; format: binding, E. coli K-12 strain; conditions: Cleavage, compound 2.5 μM, gel slice around 25 kDa
T1 construct: prepared from the DH5a derivative of the E. coli K-12 strain; endogenous in cells; host or cells: E. coli K-12 DH5a lysate
T1 sequence (P76290 whole entry): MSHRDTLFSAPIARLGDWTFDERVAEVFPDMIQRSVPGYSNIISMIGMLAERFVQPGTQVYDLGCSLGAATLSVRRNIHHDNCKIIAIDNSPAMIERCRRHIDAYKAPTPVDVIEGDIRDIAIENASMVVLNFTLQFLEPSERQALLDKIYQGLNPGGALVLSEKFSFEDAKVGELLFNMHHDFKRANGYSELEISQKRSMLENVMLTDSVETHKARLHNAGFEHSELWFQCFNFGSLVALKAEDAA
Experimental: (§1) Compound 11 (final concentration 2.5 μM) was incubated for 5 min at 4° C. with a lysate (final total protein concentration 5 mg/ml) prepared from the DH5a derivative of the E. coli K-12 strain in phosphate buffered saline (final volume 100 μl). In a so called competition control (designated “C” as opposed to “A” for CCMS assay without the competitor SAH) carried out side-by-side, S-adenosyl-L-homocysteine (SAH) (final concentration 250 μM) was added to the lysate before compound 11 to compete for the binding of the SAH selectivity function of 11 to SAH binding proteins such as S-adenosyl-L-methionine (SAM) dependent methyltransferases.
(§2) The samples were irradiated with UV light (λmax=310 nm) for 5 min in the caproBox (caprotec bioanalytics, Berlin, Germany) at about 4° C. to activate the reactivity function of 11 and form the covalent cross-link to proteins leading to 11-protein conjugates. Due to the SAH selectivity function in 11. SAH binding proteins will be selectively cross-linked to 11 and this selective crosslink will be diminished or inhibited in the competition control “C”.
(§3) The samples “A” and “C” were incubated with 250 μg 13 (CPT601, CCB 4, trans-cyclooctene (TCO) modified controlled pore glass (CPG). CPG-TCO beads), respectively, over night at 4° C. with rotation to keep the CPG beads (13) in suspension. During this time the 11-protein conjugates covalently bound to 13 by the TCO-tetrazine click reaction to form 13-11-protein conjugates. Selective binding of 11-protein conjugates to 13 was shown by taking 5 μl samples of “A” and “C”, respectively, before and after incubation with 13 and incubating these samples with 18 (final concentration 10 μM, CPT533. Probe 3, TCO-TAMRA) for 15 min at room temperature. Formed by the TCO-tetrazine click reaction, the fluorescent 18-11-protein conjugates were detected as in-gel fluorescent bands after SDS-PAGE. In the samples taken after incubation with 13, less in-gel fluorescent bands (18-11-protein conjugates) were detected than in the samples taken before incubation with 13, showing that 11-protein conjugates had reacted with 13 to form 13-11-protein conjugates.
(§4) The supernating solution was separated from the 13-11-protein conjugates after centrifugation in a table top centrifuge and the CPG beads containing the 13-11-protein conjugates were washed by re-suspending in fresh solution and removal of the supernatant after centrifugation (three times with 200 μl 4×SL Buffer, three times with 200 μl 50% acetonitrile).
(§5) The washed CPG beads containing the 13-11-protein conjugates were divided into two aliquots, respectively, for “A” and “C”. One aliquot was incubated with 10 mM 2-nitrobenzhydrazide and 10 mM HCl in 10 μl 50% acetonitrile (final concentrations and volume) at room temperature for 1 h while keeping the CPG beads containing the 13-11-protein conjugates in suspension by rotation yielding proteins with attached cleaved off photo-reacted reactivity function. As a control, the second aliquot of the CPG beads containing the 13-11-protein conjugates was treated the same way side-by-side but without 2-nitrobenzhydrazide and HCl. The proteins in the solutions supernating (cleaved) the CPG beads were analyzed by SDS-PAGE (4-20% Tris-Glycine gradient gels, 15 well, 1.0 mm; Novex® life Technologes® Ref. EC60255BOX, 25 min run time at 300 V) followed by silver staining (ProteoSilver Silver Stain Kit, Sigma).
(§6) Gel slices were cut out around 25 kDa in each gel lane corresponding to the molecular weight (height) of the specific gel lane marked by the red arrow in FIG. 13. The gel slices were treated with trypsin and the resulting peptides were analyzed by nanoLC/MS^2 (LTQ Orbitrap) followed by automatic software based protein identification and quantification (MaxQuant software package). […]

[3] = target: T2, tRNA (guanine-N(7)-)-methyltransferase (Escherichia coli, UniProt P0A8I5); assay: as above; format: binding, E. coli K-12 strain; conditions: A (without competitor SAH), Cleavage; compound 2.5 μM, gel slice around 25 kDa
T2 construct: prepared from the DH5a derivative of the E. coli K-12 strain; endogenous in cells; host or cells: E. coli K-12 DH5a lysate
T2 sequence (P0A8I5 whole entry): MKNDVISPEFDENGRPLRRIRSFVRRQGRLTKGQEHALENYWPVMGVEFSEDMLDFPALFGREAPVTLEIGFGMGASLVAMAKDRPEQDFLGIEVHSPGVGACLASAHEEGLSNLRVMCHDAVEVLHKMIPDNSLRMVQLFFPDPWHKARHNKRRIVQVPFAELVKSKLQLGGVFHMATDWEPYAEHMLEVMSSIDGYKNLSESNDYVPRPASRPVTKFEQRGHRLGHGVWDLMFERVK
Experimental: as §1, §2, §3, §4, §5, §6

[4] = target: T3, Ribosomal RNA small subunit methyltransferase G (Escherichia coli, UniProt P0A6U5); assay: as above; format: binding, E. coli K-12 strain; conditions: Cleavage, compound 2.5 μM, gel slice around 25 kDa
T3 construct: prepared from the DH5a derivative of the E. coli K-12 strain; endogenous in cells; host or cells: E. coli K-12 DH5a lysate
T3 sequence (P0A6U5 whole entry): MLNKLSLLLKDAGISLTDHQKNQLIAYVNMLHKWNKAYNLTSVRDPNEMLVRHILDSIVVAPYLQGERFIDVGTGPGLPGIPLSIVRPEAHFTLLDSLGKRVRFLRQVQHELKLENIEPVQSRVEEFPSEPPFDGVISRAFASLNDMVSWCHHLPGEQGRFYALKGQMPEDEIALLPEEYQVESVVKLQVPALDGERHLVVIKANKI
Experimental: as §1, §2, §3, §4, §5, §6

[5] = target: T4, 5-methylthioadenosine/S-adenosylhomocysteine nucleosidase (Escherichia coli, UniProt P0AF12); assay: as above; format: binding, E. coli K-12 strain; conditions: compound 2.5 μM, gel slice around 25 kDa
T4 construct: prepared from the DH5a derivative of the E. coli K-12 strain; endogenous in cells; host or cells: E. coli K-12 DH5a lysate
T4 sequence (P0AF12 whole entry): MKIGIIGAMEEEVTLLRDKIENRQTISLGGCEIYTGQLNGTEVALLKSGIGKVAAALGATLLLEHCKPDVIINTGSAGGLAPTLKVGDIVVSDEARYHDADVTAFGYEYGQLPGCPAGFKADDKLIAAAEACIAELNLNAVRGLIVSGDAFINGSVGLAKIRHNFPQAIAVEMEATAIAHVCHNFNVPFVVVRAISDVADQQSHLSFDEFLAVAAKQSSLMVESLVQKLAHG
Experimental: as §1, §2, §3, §4, §5, §6

SAH binding protein = target: T5, SAH binding protein (Escherichia coli, UniProt P0AF12); assay: Click-and-cleave with proteins/lysate, SDS-PAGE/silver stain; design: species or system E. coli K-12 strain; conditions: cleavage conditions (10 mM 2-nitrobenzhydrazide and 10 mM HCl in 50% acetonitrile)
T5 construct: prepared from the DH5a derivative of the E. coli K-12 strain; endogenous in cells; host or cells: E. coli K-12 DH5a lysate
T5 sequence (P0AF12 whole entry): as above
Experimental: Compound 11 (final concentration 2.5 μM) was incubated for 5 min at 4° C. with a lysate (final total protein concentration 5 mg/ml) prepared from the DH5a derivative of the E. coli K-12 strain in phosphate buffered saline (final volume 100 μl). In a so called competition control (designated “C” as opposed to “A” for CCMS assay without the competitor SAH) carried out side-by-side, S-adenosyl-L-homocysteine (SAH) (final concentration 250 μM) was added to the lysate before compound 11 to compete for the binding of the SAH selectivity function of 11 to SAH binding proteins such as S-adenosyl-L-methionine (SAM) dependent methyltransferases. […]
The samples “A” and “C” were incubated with 250 μg 13 (CPT601, CCB 4, trans-cyclooctene (TCO) modified controlled pore glass (CPG). CPG-TCO beads), respectively, over night at 4° C. with rotation to keep the CPG beads (13) in suspension. […] Formed by the TCO-tetrazine click reaction, the fluorescent 18-11-protein conjugates were detected as in-gel fluorescent bands after SDS-PAGE. In the samples taken after incubation with 13, less in-gel fluorescent bands (18-11-protein conjugates) were detected than in the samples taken before incubation with 13, showing that 11-protein conjugates had reacted with 13 to form 13-11-protein conjugates. […]

[6] = C (competition control, SAH 250 μM)
[7] = A (without competitor SAH), Cleavage (10 mM 2-nitrobenzhydrazide, 10 mM HCl)
[8] = A (without competitor SAH), no Cleavage
[9] = C (competition control, SAH 250 μM), Cleavage
[10] = C (competition control, SAH 250 μM), no Cleavage

Compound	fold higher intensity of 15 with 2-nitrobenzhydrazide and HCl than without ([1]; 10 mM 2-nitrobenzhydrazide, 10 mM HCl vs 50% acetonitrile only)	Area/a.u. of LC-MS EIC 249.10 peak at 1.75 min (cleaved off photo-reacted reactivity function 15) ([1]; cleavage condition 10 mM 2-nitrobenzhydrazide, 10 mM HCl in 50% acetonitrile)	Area/a.u. of LC-MS EIC 249.10 peak at 1.75 min (cleaved off photo-reacted reactivity function 15) ([1]; cleavage condition 50% acetonitrile)	Normalized protein intensities ([2]; A (without competitor SAH))	Normalized protein intensities [2, 6]	Normalized protein intensities [3]	Normalized protein intensities ([4]; A (without competitor SAH))	Normalized protein intensities [4, 6]	Normalized protein intensities [5, 7]	Normalized protein intensities [5, 8]	Normalized protein intensities [5, 9]	Normalized protein intensities [5, 10]	gel band corresponding to a SAH binding protein after SDS-PAGE/silver stain (SAH binding protein)
Cc1nnc(-c2ccc(CN(CC(=O)NCCCCNc3ncnc4c3ncn4C3OC(CSCC[C@H](N)C(=O)O)C(O)C3O)C(=O)CC/C=N/N(C)C(=O)c3ccc(C4(C(F)(F)F)N=N4)cc3)cc2)nn1 (stereo partly drawn) [Compound 11, (2S)-2-amino-4-((3,4-dihydroxy-5-(6-(4-(2-((E)-N-(4-(6-methyl-1,2,4,5-tetrazin-3-yl)benzyl)-4-(2-methyl-2-(4-(3-(trifluoromethyl)-3H-diazirin-3-yl)benzoyl)hydrazono)butanamido)acetamido)butylamino)-9H-purin-9-yl)tetrahydrofuran-2-yl)methylthio)butanoic acid]	more than 50 fold	26722302 a.u.	491625 a.u.	1.6E+06	2.9E+05	4.0E+05	7.8E+05	3.6E+05	9.0E+07	4.0E+06	2.2E+06	1.0E+06	present
Cc1nnc(-c2ccc(CN(CC(=O)NCCCCNc3ncnc4c3ncn4C3OC(CSCC[C@H](N)C(=O)O)C(O)C3O)C(=O)c3ccc(C4(C(F)(F)F)N=N4)cc3)cc2)nn1 (some centres unmarked) [Compound 16]	–	–	–	–	–	–	1.5E+05	7.5E+04	7.2E+06	1.9E+05	7.9E+05	2.6E+05	absent
